Laboratory results: patent US12187728B2 (Raze Therapeutics, Inc., priority 2015, dated 2025)

Molecular target: T1, Human MTHFD2 (Homo sapiens, UniProt P13995)
T1 construct: residues 36-350 in Uniport ID P13995; His6 (N); made in house; host or cells: E. coli
T1 sequence (P13995 36-350): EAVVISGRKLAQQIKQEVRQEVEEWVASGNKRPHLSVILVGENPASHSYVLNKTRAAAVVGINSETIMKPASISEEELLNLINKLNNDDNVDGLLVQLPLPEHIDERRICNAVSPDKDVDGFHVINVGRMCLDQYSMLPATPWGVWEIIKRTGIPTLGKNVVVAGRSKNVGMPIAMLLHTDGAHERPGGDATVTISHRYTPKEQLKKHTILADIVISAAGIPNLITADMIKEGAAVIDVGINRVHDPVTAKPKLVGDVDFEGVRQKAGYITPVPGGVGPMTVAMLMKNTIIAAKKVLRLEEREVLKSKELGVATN
Experiment: MTHFD2 Activity Assay (dehydrogenase activity, diaphorase/resazurin coupled fluorescence)
Assay type: biochemical
Details: inhibitory activity (IC50 and/or binding constant); 0.2 nM MTHFD2, 11 concentrations
How it was run: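 His6-tagged MTHFD2 (res. 36-350), E. coli-expressed, at 0.2 nM preincubated with compound 15 min in Hepes pH 8.0/MgCl2/KH2PO4 buffer; 70 μM CH2-THF, 1 mM NAD+ added with resazurin/diaphorase, 30 min, EDTA stop. Resorufin fluorescence (ex 525/em 598); IC50 from 11-point 4-parameter fit.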

Cn1c(Nc2cnccn2)nc2c1c(=O)n(Cc1ccc(Cl)c(Cl)c1)c(=O)n2C [Example 126, 1-(3,4-dichlorobenzyl)-3,7-dimethyl-8-(pyrazin-2-ylamino)-1H-purine-2,6(3H,7H)-dione]
IC50: 10 to 1000 nM

Cn1c(N[C@H]2C[C@H](CO)C2)nc2c1c(=O)n(Cc1cc3c(Cl)cccc3[nH]1)c(=O)n2C [Example 305, 1-((4-chloro-1H-indol-2-yl)methyl)-8-((1R,3R)-3-(hydroxymethyl)cyclobutylamino)-3,7-dimethyl-1H-purine-2,6(3H,7H)-dione]
IC50: 10 to 1000 nM

Cc1ccc2[nH]c(Cn3c(=O)c4c(nc(N5CC(O)C5)n4C)n(C)c3=O)cc2c1 [Example 194, 8-(3-hydroxyazetidin-1-yl)-3,7-dimethyl-1-((5-methyl-1H-indol-2-yl)methyl)-1H-purine-2,6(3H,7H)-dione]
IC50: 1000 to 5000 nM

Cn1c(Nc2cccc([C@H]3C[C@H]3C(=O)O)n2)nc2c1c(=O)n(Cc1ccc(Cl)c(Cl)c1)c(=O)n2C (racemic) [Example 357, (±)-cis-2-(6-((1-(3,4-dichlorobenzyl)-3,7-dimethyl-2,6-dioxo-2,3,6,7-tetrahydro-1H-purin-8-yl)amino)pyridin-2-yl)cyclopropanecarboxylic acid]
IC50: 10 to 1000 nM

Cn1c(N[C@@H]2CCC[C@H]2O)nc2c1c(=O)n(Cc1ccc(Cl)c(Cl)c1)c(=O)n2C [Example 93, 1-[(3,4-dichlorophenyl)methyl]-8-{[(1R,2R)-2-hydroxycyclopentyl]amino}-3,7-dimethyl-2,3,6,7-tetrahydro-1H-purine-2,6-dione]
IC50: 10 to 1000 nM

COc1ccc2c(c1)cc(Cn1c(=O)c3c(ncn3C)n(C)c1=O)n2C [Example 238, 1-((5-methoxy-1-methyl-1H-indol-2-yl)methyl)-3,7-dimethyl-1H-purine-2,6(3H,7H)-dione]
IC50: > 10000 nM

Cn1c(N[C@@H]2CCOC2)nc2c1c(=O)n(Cc1ccc(Cl)c(Cl)c1)c(=O)n2C [Example 63, 1-[(3,4-dichlorophenyl)methyl]-3,7-dimethyl-8-{[(3R)-oxolan-3-yl]amino}-2,3,6,7-tetrahydro-1H-purine-2,6-dione]
IC50: 10 to 1000 nM

Cn1c(NCC2(O)CCCCC2)nc2c1c(=O)n(Cc1ccc(C(F)(F)F)cc1)c(=O)n2C [Example 107, 8-((1-hydroxycyclohexyl)methylamino)-3,7-dimethyl-1-(4-(trifluoromethyl)benzyl)-1H-purine-2,6(3H,7H)-dione]
IC50: > 10000 nM

Cn1c(NC2CCCC(O)C2)nc2c1c(=O)n(Cc1ccc(Cl)c(Cl)c1)c(=O)n2C (centres unmarked) [Example 33, 1-[(3,4-dichlorophenyl)methyl]-8-[(3-hydroxycyclohexyl)amino]-3,7-dimethyl-2,3,6,7-tetrahydro-1H-purine-2,6-dione]
IC50: 10 to 1000 nM

Cn1c(NC[C@@H](O)CO)nc2c1c(=O)n(Cc1ccc(Cl)c(Cl)c1)c(=O)n2C [Example 13, 1-[(3,4-dichlorophenyl)methyl]-8-{[(2R)-2,3-dihydroxypropyl]amino}-3,7-dimethyl-2,3,6,7-tetrahydro-1H-purine-2,6-dione]
IC50: 10 to 1000 nM

Cn1c(N[C@H]2CCC[C@@H](O)C2)nc2c1c(=O)n(Cc1ccc(Cl)c(Cl)c1)c(=O)n2C (single isomer, unassigned) [Example 79, 1-(3,4-dichlorobenzyl)-8-((1S,3R)-3-hydroxycyclohexylamino)-3,7-dimethyl-1H-purine-2,6(3H,7H)-dione or 1-(3,4-dichlorobenzyl)-8-((1R,3S)-3-hydroxycyclohexylamino)-3,7-dimethyl-1H-purine-2,6(3H,7H)-dione]
IC50: 10 to 1000 nM

Cn1c(N[C@H](CO)CC2CCCCC2)nc2c1c(=O)n(Cc1ccc(C(F)(F)F)cc1)c(=O)n2C [Example 120, (S)-8-(1-cyclohexyl-3-hydroxypropan-2-ylamino)-3,7-dimethyl-1-(4-(trifluoromethyl)benzyl)-1H-purine-2,6(3H,7H)-dione]
IC50: > 10000 nM

COC(=O)c1ccc(Nc2nc3c(c(=O)n(Cc4ccc(Cl)c(Cl)c4)c(=O)n3C)n2C)cc1 [Example 154, Methyl 4-(1-(3,4-dichlorobenzyl)-3,7-dimethyl-2,6-dioxo-2,3,6,7-tetrahydro-1H-purin-8-ylamino)benzoate]
IC50: 1000 to 5000 nM

Cn1c(N[C@H]2CC[C@@H](N)CC2)nc2c1c(=O)n(Cc1ccc(Cl)c(Cl)c1)c(=O)n2C [Example 39, (±)-1-[(3,4-dichlorophenyl)methyl]-3,7-dimethyl-8-{[(cis)-4-aminocyclohexyl]amino}-2,3,6,7-tetrahydro-1H-purine-2,6-dione]
IC50: 1000 to 5000 nM

Cn1c(NC2CCCC(C(=O)O)C2)nc2c1c(=O)n(Cc1cc3c(Cl)cccc3[nH]1)c(=O)n2C (centres unmarked) [Example 308, 3-(1-((4-chloro-1H-indol-2-yl)methyl)-3,7-dimethyl-2,6-dioxo-2,3,6,7-tetrahydro-1H-purin-8-ylamino)cyclohexanecarboxylic acid]
IC50: 10 to 1000 nM

COc1ccc2[nH]c(Cn3c(=O)c4c(nc(Nc5ccncc5)n4C)n(C)c3=O)cc2c1 [Example 183, 1-((5-methoxy-1H-indol-2-yl)methyl)-3,7-dimethyl-8-(pyridin-4-ylamino)-1H-purine-2,6(3H,7H)-dione]
IC50: 10 to 1000 nM

Cn1c(Nc2ccncc2)nc2c1c(=O)n(Cc1cc3c(C(F)(F)F)cccc3[nH]1)c(=O)n2C [Example 404, 3,7-dimethyl-8-(pyridin-4-ylamino)-1-((4-(trifluoromethyl)-1H-indol-2-yl)methyl)-1H-purine-2,6(3H,7H)-dione]
IC50: 10 to 1000 nM

Cn1c(NCCCO)nc2c1c(=O)n(-c1ccc(Cl)c(Cl)c1)c(=O)n2C [Example 62, 1-(3,4-dichlorophenyl)-8-[(3-hydroxypropyl)amino]-3,7-dimethyl-2,3,6,7-tetrahydro-1H-purine-2,6-dione]
IC50: > 10000 nM

C[C@@H](Nc1nc2c(c(=O)n(Cc3ccc(Cl)c(Cl)c3)c(=O)n2C)n1C)C(=O)O [Example 169, (R)-2-(1-(3,4-dichlorobenzyl)-3,7-dimethyl-2,6-dioxo-2,3,6,7-tetrahydro-1H-purin-8-ylamino)propanoic acid]
IC50: 10 to 1000 nM

Cn1c(Nc2ccnc(C(=O)O)c2)nc2c1c(=O)n(Cc1ccc(Cl)c(Cl)c1)c(=O)n2C [Example 303, 4-(1-(3,4-dichlorobenzyl)-3,7-dimethyl-2,6-dioxo-2,3,6,7-tetrahydro-1H-purin-8-ylamino)picolinic acid]
IC50: 1000 to 5000 nM

C[C@H](O)CNc1nc2c(c(=O)n(Cc3ccc(Cl)cc3)c(=O)n2C)n1C [Example 18, 1-[(4-chlorophenyl)methyl]-8-{[(2S)-2-hydroxypropyl]amino}-3,7-dimethyl-2,3,6,7-tetrahydro-1H-purine-2,6-dione]
IC50: 5000 to 10000 nM

CC(CN)c1nc2c(c(=O)n(Cc3cc4c(Cl)cccc4[nH]3)c(=O)n2C)n1C (centres unmarked) [Example 485, 8-(1-aminopropan-2-yl)-1-((4-chloro-1H-indol-2-yl)methyl)-3,7-dimethyl-1H-purine-2,6(3H,7H)-dione]
IC50: 10 to 1000 nM

CCOC(=O)Cn1c(=O)n(Cc2ccc(Cl)c(Cl)c2)c(=O)c2c1nc(NCCCO)n2C [Example 98, Ethyl 2-(1-(3,4-dichlorobenzyl)-8-((3-hydroxypropyl)amino)-7-methyl-2,6-dioxo-1,2,6,7-tetrahydro-3H-purin-3-yl)acetate]
IC50: 5000 to 10000 nM
